Assay results from patent publication US10086085B2, “Bifunctional cytotoxic agents” (priority 2014, dated 2018).

These molecules were tested on N87 (human gastric carcinoma derived from metastatic liver site) (assay: Cytotoxicity assay for payloads (MTS), N87 cells). Conditions: Homo sapiens, 96 h, read-out: N87 IC50 (nM).
Assay type: cell-based
Procedure: (§1) Cancer cell lines were obtained from ATCC (Manassas, Va.). N87 (human gastric carcinoma derived from metastatic liver site). HL60 (leukemia), A375 (melanoma) and HUVEC (human umbilical vein endothelial cells). were grown in RPMI 1640 media. All media were supplemented with 10% fetal bovine serum, 1% sodium pyruvate, and 1% L-glutamine (Invitrogen, Grand Island, N.Y.). Human umbilical vein endothelial cells (HUVEC) were obtained from Lonza (Allendale, N.J.) and maintained in EGM2 media supplemented with EGM-2 SingleQuots (Lonza # CC-4176). All cells were maintained in a humidified incubator (37° C., 5% CO2).
(§2) Cells in 100 μl medium were cultured in a 96-well plate. Cancer cell lines treated with the indicated compounds by adding 50 μl of 3× stocks in duplicate at 10 concentrations. Cells were incubated with compounds for four days, then 30 μl of CellTiter® 96 AQueous One MTS Solution (Promega Cat # G3582) was added to the cells, incubated 1.5 hr at 37° C., then absorbance measured at 490 nm on a Victor plate reader (Perkin Elmer, Waltham, Mass.). Relative cell viability was determined as a percentage of untreated control wells. IC50 values were calculated using four parameter logistic model #203 with XLfit v4.2 (IDBS, Guildford, Surry, UK).

In the case of `CN(C)CCNC(=O)Oc1cc2c(c3ccccc13)[C@H](CCl)CN2C(=O)c1ccc(C(=O)N2C[C@@H](CCl)c3c2cc(O)c2ccccc32)s1` [Compound 123, (S)-1-(chloromethyl)-3-(5-((S)-1-(chloromethyl)-5-hydroxy-2,3-dihydro-1H-benzo[e]indole-3-carbonyl)thiophene-2-carbonyl)-2,3-dihydro-1H-benzo[e]indol-5-yl(2-(dimethylamino)ethyl)carbamate], the IC50 is reported as 0.003 nM.

Same assay, conditions: Homo sapiens, 96 h; N87 cells, incubated with compounds for four days, MTS absorbance 490 nm; read-out: N87 IC50

Going from `O=C(c1ccc(C(=O)N2C[C@@H](CCl)c3c2cc(O)c2ccccc32)o1)N1C[C@@H](CCl)c2c1cc(O)c1ccccc21` [Compound 13, (S)-furan-2,5-diylbis(((S)-1-(chloromethyl)-5-hydroxy-1H-benzo[e]indol-3(2H)-yl)methanone)] to `Cn1c(C(=O)N2C[C@@H](CCl)c3c2cc(O)c2ccccc32)ccc1C(=O)N1C[C@@H](CCl)c2c1cc(O)c1ccccc21` [Compound 38, (S)-(1-methyl-1H-pyrrole-2,5-diyl)bis(((S)-1-(chloromethyl)-5-hydroxy-1H-benzo[e]indol-3(2H)-yl)methanone)], the IC50 rises from 0.138 nM to no less than 10 nM.

First: O=C(c1cncc(C(=O)N2C[C@@H](CCl)c3c2cc(O)c2ccccc32)c1)N1C[C@@H](CCl)c2c1cc(O)c1ccccc21 [Compound 26, (S)-pyridine-3,5-diylbis(((S)-1-(chloromethyl)-5-hydroxy-1H-benzo[e]indol-3(2H)-yl)methanone)]
Second: O=C(c1csc(C(=O)N2C[C@@H](CCl)c3c2cc(O)c2ccccc32)c1)N1C[C@@H](CCl)c2c1cc(O)c1ccccc21 [Compound 35, (S)-thiophene-2,4-diylbis(((S)-1-(chloromethyl)-5-hydroxy-1H-benzo[e]indol-3(2H)-yl)methanone)]
The IC50 of the first is higher: no less than 10 nM for the first, 1.21 nM for the second. The second is the more potent here.

Compared with `O=C(N[C@@H](CCC(=O)N1C[C@@H](CCl)c2c1cc(O)c1ccccc21)C(=O)N1C[C@@H](CCl)c2c1cc(O)c1ccccc21)OCC1c2ccccc2-c2ccccc21` [Compound 60, [(S)-1-((S)-1-Chloromethyl-5-hydroxy-1,2-dihydro-benzo[e]indole-3-carbonyl)-4-((S)-1-chloromethyl-5-hydroxy-1,2-dihydro-benzo[e]indol-3-yl)-4-oxo-butyl]-carbamic acid 9H-fluoren-9-ylmethyl ester], `O=C(CCc1ccc(CCC(=O)N2C[C@@H](CCl)c3c2cc(O)c2ccccc32)s1)N1C[C@@H](CCl)c2c1cc(O)c1ccccc21` [Compound 146, 3,3′-thiene-2,5-diylbis{1-[(1S)-1-(chloromethyl)-5-hydroxy-1,2-dihydro-3H-benzo[e]indol-3-yl]propan-1-one}] is lower in IC50: no less than 10 nM for the first, 3.1 nM for the second. The second is the more potent here.

First: CC(=O)Oc1cc2c(c3ccccc13)[C@H](CCl)CN2C(=O)c1ccc(C(=O)N2C[C@@H](CCl)c3c2cc(OC(C)=O)c2ccccc32)[nH]1 [Compound 68, (1S,1′S)-3,3′-(1H-pyrrole-2,5-dicarbonyl)bis(1-(chloromethyl)-2,3-dihydro-1H-benzo[e]indole-5,3-diyl)diacetate]
Second: CC(=O)Oc1cc2c(c3ccccc13)[C@H](CCl)CN2C(=O)c1cnc(C(=O)N2C[C@@H](CCl)c3c2cc(OC(C)=O)c2ccccc32)s1 [Compound 71, (1S,1′S)-3,3′-(thiazole-2,5-dicarbonyl)bis(1-(chloromethyl)-2,3-dihydro-1H-benzo[e]indole-5,3-diyl)diacetate]
The IC50 of the first is 2.6-fold lower: 0.033 nM for the first, 0.085 nM for the second. The first is the more potent here.

`Cc1c[nH]c2c(O)cc3c(c12)[C@H](CCl)CN3C(=O)c1ccc(C(=O)N2C[C@@H](CCl)c3c2cc(O)c2ccccc32)s1` [Compound 117, ((S)-1-Chloromethyl-5-hydroxy-1,2-dihydro-benzo[e]indol-3-yl)-[5-((S)-1-chloromethyl-5-hydroxy-8-methyl-1,6-dihydro-2H-pyrrolo[3,2-e]indole-3-carbonyl)-thiophen-2-yl]methanone] and `CC(=O)Oc1cc2c(c3ccccc13)[C@H](CCl)CN2C(=O)c1ccc(C(=O)N2C[C@@H](CCl)c3c2cc(O)c2ccccc32)s1` [Compound 170, (1S)-1-(chloromethyl)-3-[(5-{[(1S)-1-(chloromethyl)-5-hydroxy-1,2-dihydro-3H-benzo[e]indol-3-yl]carbonyl}thiophen-2-yl)carbonyl]-2,3-dihydro-1H-benzo[e]indol-5-yl acetate] are within 1.5-fold of each other in IC50: 0.004 nM for the first, 0.005 nM for the second.

First: COC(=O)Oc1cc2c(c3ccccc13)[C@H](CCl)CN2C(=O)c1ccc(C(=O)N2C[C@@H](CCl)c3c2cc(O)c2ccccc32)s1 [Compound 119, (S)-1-(chloromethyl)-3-(5-((S)-1-(chloromethyl)-5-hydroxy-2,3-dihydro-1H-benzo[e]indole-3-carbonyl)thiophene-2-carbonyl)-2,3-dihydro-1H-benzo[e]indol-5-yl methyl carbonate]
Second: CC(=O)OC[C@H]1O[C@@H](Oc2cc3c(c4ccccc24)[C@H](CCl)CN3C(=O)c2ccc(C(=O)N3C[C@@H](CCl)c4c3cc(O)c3ccccc43)s2)[C@H](OC(C)=O)[C@@H](OC(C)=O)[C@H]1OC(C)=O [Compound 153, (2R,3S,4S,5R,6S)-2-(acetoxymethyl)-6-(((S)-1-(chloromethyl)-3-(5-((S)-1-(chloromethyl)-5-hydroxy-2,3-dihydro-1H-benzo[e]indole-3-carbonyl)thiophene-2-carbonyl)-2,3-dihydro-1H-benzo[e]indol-5-yl)oxy)tetrahydro-2H-pyran-3,4,5-triyl triacetate]
The IC50 of the first is 1100-fold lower: 0.004 nM for the first, 4.47 nM for the second.

Compared with `CC(=O)Oc1cc2c(c3ccccc13)[C@H](CCl)CN2C(=O)Cc1ccc(CC(=O)N2C[C@@H](CCl)c3c2cc(OC(C)=O)c2ccccc32)s1` [Compound 160, thiene-2,5-diylbis[(1-oxoethane-2,1-diyl)(1S)-1-(chloromethyl)-1,2-dihydro-3H-benzo[e]indole-3,5-diyl] diacetate], `CC(=O)Oc1cc2c(c3ccccc13)[C@H](CCl)CN2C(=O)C12C3C4C1C1C2C3C41C(=O)N1C[C@@H](CCl)c2c1cc(OC(C)=O)c1ccccc21` (stereo partly drawn) [Compound 181, pentacyclo[4.2.0.0~2,5~.0~3,8~.0~4,7~]octane-1,4-diylbis[carbonyl(1S)-1-(chloromethyl)-1,2-dihydro-3H-benzo[e]indole-3,5-diyl] diacetate] is 2500-fold lower in IC50: 12.7 nM for the first, 0.005 nM for the second. The second is the more potent here.

Same assay, conditions: N87 cells, incubated with compounds for four days, MTS absorbance 490 nm; read-out: N87 IC50

In the case of `CNCCN(C)C(=O)Oc1cc2c(c3ccccc13)[C@H](CCl)CN2C(=O)c1ccc(C(=O)N2C[C@@H](CCl)c3c2cc(O)c2ccccc32)s1` [Compound 126, (S)-1-(chloromethyl)-3-(5-((S)-1-(chloromethyl)-5-hydroxy-2,3-dihydro-1H-benzo[e]indole-3-carbonyl)thiophene-2-carbonyl)-2,3-dihydro-1H-benzo[e]indol-5-ylmethyl(2-(methylamino)ethyl)carbamate], the IC50 is reported as 0.004 nM.

These molecules were tested on HL60 (leukemia) (assay: Cytotoxicity assay for payloads (MTS), HL-60 cells). Conditions: Homo sapiens, 96 h, incubated with compounds for four days, MTS absorbance 490 nm.
Assay type: cell-based
Procedure: as §1, §2

First: O=C(c1ccc(C(=O)N2C[C@@H](CCl)c3c2cc(O)c2ccccc32)o1)N1C[C@@H](CCl)c2c1cc(O)c1ccccc21 [Compound 13, (S)-furan-2,5-diylbis(((S)-1-(chloromethyl)-5-hydroxy-1H-benzo[e]indol-3(2H)-yl)methanone)]
Second: O=C(O)[C@H]1O[C@@H](Oc2cc3c(c4ccccc24)[C@H](CCl)CN3C(=O)c2ccc(C(=O)N3C[C@@H](CCl)c4c3cc(O)c3ccccc43)s2)[C@H](O)[C@@H](O)[C@@H]1O [Compound 164, (2S,3S,4S,5R,6S)-6-(((S)-1-(chloromethyl)-3-(5-((S)-1-(chloromethyl)-5-hydroxy-2,3-dihydro-1H-benzo[e]indole-3-carbonyl)thiophene-2-carbonyl)-2,3-dihydro-1H-benzo[e]indol-5-yl)oxy)-3,4,5-trihydroxytetrahydro-2H-pyran-2-carboxylic acid]
The IC50 of the first is 4.1-fold lower: 0.014 nM for the first, 0.057 nM for the second. The first is the more potent here.

Compared with `CC(=O)Oc1cc2c(c3ccccc13)[C@H](CCl)CN2C(=O)CNCC(=O)N1C[C@@H](CCl)c2c1cc(OC(C)=O)c1ccccc21` [Compound 53, Acetic acid (S)-3-{2-[2-((S)-5-acetoxy-1-chloromethyl-1,2-dihydro-benzo[e]indol-3-yl)-2-oxo-ethylamino]-acetyl}-1-chloromethyl-2,3-dihydro-1H-benzo[e]indol-5-1 ester], `CC(=O)Oc1cc2c(c3ccccc13)[C@H](CCl)CN2C(=O)[C@H]1C[C@@H](C(=O)N2C[C@@H](CCl)c3c2cc(OC(C)=O)c2ccccc32)C1` [Compound 168, cis-cyclobutane-1,3-diylbis[carbonyl(1S)-1-(chloromethyl)-1,2-dihydro-3H-benzo[e]indole-3,5-diyl] diacetate] is 8.1-fold higher in IC50: 0.012 nM for the first, 0.097 nM for the second. The first is the more potent here.

First: CC(=O)Oc1cc2c(c3ccccc13)[C@H](CCl)CN2C(=O)C12CCC(C(=O)N3C[C@@H](CCl)c4c3cc(O)c3ccccc43)(CC1)C2 [Compound 134, (1S)-1-(chloromethyl)-3-[(4-{[(1S)-1-(chloromethyl)-5-hydroxy-1,2-dihydro-3H-benzo[e]indol-3-yl]carbonyl}bicyclo[2.2.1]hept-1-yl)carbonyl]-2,3-dihydro-1H-benzo[e]indol-5-yl acetate]
Second: CC(=O)Oc1cc2c(c3ccccc13)[C@H](CCl)CN2C(=O)[C@]12CCC[C@](C(=O)N3C[C@@H](CCl)c4c3cc(O)c3ccccc43)(C1)C2 [Compound 175, (1S)-1-(chloromethyl)-3-{[(1S,5S)-5-{[(1S)-1-(chloromethyl)-5-hydroxy-1,2-dihydro-3H-benzo[e]indol-3-yl]carbonyl}bicyclo[3.1.1]hept-1-yl]carbonyl}-2,3-dihydro-1H-benzo[e]indol-5-yl acetate]
The IC50 of the first is 120-fold lower: 0.099 nM for the first, 11.8 nM for the second. The first is the more potent here.
